Columns and labels:
Test in all cases: concentration in plasma after dosing
[1] = system: rat; conditions: dosed: 2,4-D, 0.20467 mg/kg, iv, male, Sprague-Dawley
[2] = system: rat; conditions: dosed: 2,4-D, 1.043 mg/kg, oral, male, Sprague-Dawley
[3] = system: rat; conditions: dosed: 2,4-D, 1.043 mg/kg, oral, male, Sprague-Dawley; remark: listed apart in the source
[4] = system: rat; conditions: dosed: 2,4-D, 0.20467 mg/kg, iv, male, Sprague-Dawley; remark: listed apart in the source
[5] = system: rat; conditions: male, Sprague-Dawley
[6] = system: rat; conditions: dosed: Boscalid, 5.0000000000 mg/kg, oral, male, Sprague-Dawley
[7] = system: rat; conditions: dosed: Boscalid, 5.0000000000 mg/kg, oral, male, Sprague-Dawley; remark: listed apart in the source
[8] = system: rat; conditions: dosed: Boscalid, 1.0000000000 mg/kg, iv, male, Sprague-Dawley
[9] = system: rat; conditions: dosed: Boscalid, 1.0000000000 mg/kg, iv, male, Sprague-Dawley; remark: listed apart in the source
[10] = system: rat; conditions: dosed: Boscalid, 5.0000000000 mg/kg, oral, male, Sprague-Dawley; remark: listed apart in the source
[11] = system: rat; conditions: dosed: Cyclanilide, 0.2000000000 mg/kg, iv, male, Sprague-Dawley
[12] = system: rat; conditions: dosed: Cyclanilide, 0.2000000000 mg/kg, iv, male, Sprague-Dawley; remark: listed apart in the source
[13] = system: rat; conditions: dosed: Cyclanilide, 1.0000000000 mg/kg, oral, male, Sprague-Dawley
[14] = system: rat; conditions: dosed: Cyclanilide, 1.0000000000 mg/kg, oral, male, Sprague-Dawley; remark: listed apart in the source
[15] = system: rat; conditions: dosed: Cyclanilide, 0.2000000000 mg/kg, iv, male, Sprague-Dawley; remark: listed apart in the source
[16] = system: rat; conditions: dosed: Cyclanilide, 1.0000000000 mg/kg, oral, male, Sprague-Dawley; remark: listed apart in the source
[17] = system: rat; conditions: dosed: Imazalil, 1.0000000000 mg/kg, iv, male, Sprague-Dawley
[18] = system: rat; conditions: dosed: Imazalil, 1.0000000000 mg/kg, iv, male, Sprague-Dawley; remark: listed apart in the source
[19] = system: rat; conditions: dosed: Imidacloprid, 5.0000000000 mg/kg, oral, male, Sprague-Dawley
[20] = system: rat; conditions: dosed: Imidacloprid, 5.0000000000 mg/kg, iv, male, Sprague-Dawley
[21] = system: rat; conditions: dosed: Imidacloprid, 5.0000000000 mg/kg, oral, male, Sprague-Dawley; remark: listed apart in the source
[22] = system: rat; conditions: dosed: Imidacloprid, 5.0000000000 mg/kg, iv, male, Sprague-Dawley; remark: listed apart in the source
[23] = system: rat; conditions: dosed: Imidacloprid, 5.0000000000 mg/kg, oral, male, Sprague-Dawley; remark: listed apart in the source
[24] = system: rat; conditions: dosed: Imidacloprid, 5.0000000000 mg/kg, iv, male, Sprague-Dawley; remark: listed apart in the source

O=C(O)COc1ccc(Cl)cc1Cl [2,4-D]
concentration in plasma [ng/mL]
Conditions | 0.167 h | 0.25 h | 0.5 h | 1 h | 2 h | 4 h | 5 min | 8 h | 24 h
[1] | 616 | – | 219 | 75.8 | 9.23 | 0.324 | 911 | – | –
[2] | – | 1200 | 690 | 417 | 764 | 743 | – | 402 | –
[3] | – | 1440 | 1240 | 816 | 858 | 688 | – | 504 | 0.48
[4] | 250 | – | 79.7 | 32.3 | 30.8 | 7.75 | 461 | – | –

concentration in plasma [ng/mL], [5], dosed: 2,4-D
Conditions | 0.167 h | 0.25 h | 0.5 h | 1 h | 2 h | 4 h | 5 min | 8 h | 24 h
0.20467 mg/kg, iv | 466 | – | 192 | 71.5 | 22 | 1.84 | 710 | – | –
1.043 mg/kg, oral | – | 1030 | 1030 | 566 | 492 | 154 | – | 412 | 0.0594

O=C(Nc1ccccc1-c1ccc(Cl)cc1)c1cccnc1Cl [Boscalid]
concentration in plasma [ng/mL]
Conditions | 0.25 h | 0.5 h | 1 h | 2 h | 4 h | 5 min | 8 h | 10 min | 12 h
[6] | 30.5 | 43.1 | 31.9 | 11.5 | 8.5 | – | 16.1 | – | 21.1
[7] | 29.9 | 36.8 | 18.6 | 14.1 | 5.5 | – | – | – | 8.6
[8] | – | 100 | 57.6 | 23.1 | 12.5 | 366 | 6.72 | 262 | –
[9] | – | 146 | 71.5 | 28.4 | 10.8 | 516 | – | 325 | –
[10] | 16.7 | 22.5 | 28.9 | 30.9 | 20.2 | – | 22.3 | – | 10.1

concentration in plasma [ng/mL], [5], dosed: Boscalid
Conditions | 0.25 h | 0.5 h | 1 h | 2 h | 4 h | 5 min | 8 h | 10 min | 12 h
1.0000000000 mg/kg, iv | – | 131 | 78 | 29.4 | 9.3 | 418 | – | 293 | –
5.0000000000 mg/kg, oral | 47.3 | 81.4 | 65.2 | 24.6 | 13.6 | – | 15.9 | – | 7.5

O=C(O)C1(C(=O)Nc2ccc(Cl)cc2Cl)CC1 [Cyclanilide]
concentration in plasma [ng/mL]
Conditions | [11] | [12] | [13] | [14] | [15] | [16]
0.25 h | – | – | 869 | 100 | – | 1140
0.5 h | 1000 | 972 | 1060 | 1120 | 727 | 646
1 h | 744 | 639 | 808 | 1210 | 910 | 801
2 h | 364 | 475 | 575 | 918 | 416 | 568
4 h | 222 | 251 | 482 | 827 | 262 | 464
5 min | 1520 | 1730 | – | – | 1560 | –
8 h | 71.9 | 77 | 200 | 507 | 81.1 | 336
10 min | 1200 | 2250 | – | – | 1400 | –
12 h | 68.8 | 65.7 | 184 | 293 | 98.9 | 284
24 h | 7.7 | 8 | 39.6 | 101 | 6.5 | 18.7
48 h | 3.1 | 2.1 | – | 1.3 | 0.8 | 1.5
72 h | – | 1.7 | – | 1.2 | 1.2 | 1.3

[5], dosed: Cyclanilide
Conditions | concentration in plasma [ng/mL]
0.25 h, 1.0000000000 mg/kg, oral | 1720
0.5 h, 0.2000000000 mg/kg, iv | 1140
0.5 h, 1.0000000000 mg/kg, oral | 1470
1 h, 0.2000000000 mg/kg, iv | 982
1 h, 1.0000000000 mg/kg, oral | 1150
2 h, 0.2000000000 mg/kg, iv | 553
2 h, 1.0000000000 mg/kg, oral | 780
4 h, 0.2000000000 mg/kg, iv | 412
4 h, 1.0000000000 mg/kg, oral | 518
5 min, 0.2000000000 mg/kg, iv | 1960
8 h, 0.2000000000 mg/kg, iv | 156
8 h, 1.0000000000 mg/kg, oral | 617
10 min, 0.2000000000 mg/kg, iv | 1780
12 h, 0.2000000000 mg/kg, iv | 84.1
12 h, 1.0000000000 mg/kg, oral | 234
24 h, 0.2000000000 mg/kg, iv | 28.9
24 h, 1.0000000000 mg/kg, oral | 24.9
48 h, 0.2000000000 mg/kg, iv | 2.5
48 h, 1.0000000000 mg/kg, oral | 1
72 h, 0.2000000000 mg/kg, iv | 3.2
72 h, 1.0000000000 mg/kg, oral | 1.5

C=CCOC(Cn1ccnc1)c1ccc(Cl)cc1Cl (stereo not given) [Imazalil]
concentration in plasma [ng/mL]
Conditions | 0.5 h | 1 h | 2 h | 4 h | 5 min | 10 min
[17] | 23.8 | 12.2 | 6.6 | 3.4 | 125 | 73.5
[18] | 33.3 | 22 | 6.8 | 5.3 | 162 | 71.5

concentration in plasma [ng/mL], [5], dosed: Imazalil
Conditions | 0.25 h | 0.5 h | 1 h | 2 h | 4 h | 5 min | 10 min
1.0000000000 mg/kg, iv | – | 25.6 | 20.7 | 7.2 | 3.6 | 139 | 63.9
5.0000000000 mg/kg, oral | 9.7 | 11.4 | 7.9 | 1 | – | – | –

O=[N+]([O-])/N=C1\NCCN1Cc1ccc(Cl)nc1 [Imidacloprid]
concentration in plasma [ng/mL]
Conditions | [19] | [20] | [21] | [22] | [23] | [24]
0.25 h | 1770 | – | 4410 | – | 831 | –
0.5 h | 2660 | 1140 | 4310 | 743 | 935 | 382
1 h | 2670 | 922 | 6030 | 603 | 1930 | 560
2 h | 2380 | 626 | 3400 | 786 | 2060 | 694
4 h | 1990 | 478 | 2480 | 552 | 2620 | 548
5 min | – | 1260 | – | 786 | – | 217
8 h | 648 | 191 | 2670 | 232 | 2950 | 170
10 min | – | 1500 | – | 683 | – | 328
12 h | 278 | 67.5 | 1520 | 141 | 1200 | 67
24 h | 46 | 8.66 | 259 | 14 | 279 | 8.54
48 h | 14.5 | – | 33.6 | 2.12 | 17.9 | –
72 h | 8.76 | – | – | – | 13.2 | 2.49

concentration in plasma [ng/mL], [5], dosed: Imidacloprid, 5.0000000000 mg/kg
Conditions | iv | oral
0.25 h | – | 1600
0.5 h | 971 | 2290
1 h | 683 | 1550
2 h | 943 | 2920
4 h | 695 | 2610
5 min | 1190 | –
8 h | 327 | 2330
10 min | 1260 | –
12 h | 233 | 1360
24 h | 17.6 | 171
48 h | 2.89 | 19.7
72 h | – | 6.62

From EPA's CvTdb concentration-time database (doi:10.1093/toxsci/kfy020)
